{"source": "patent US20250017964A1", "about": "“ENGINEERING OR INDUCING PDGF AND/OR PDGFR SIGNALING TO ENHANCE NK CELL THERAPY” (City of Hope, priority 2021, published 2025)", "assay_type_in_all_cases": "cell-based, human", "key": {"PDGFRB promoter": {"system": "PDGFRB promoter", "assay": "ChIP-qPCR, binding of p65 to the PDGFRB promoter", "settings": "IL-15-stimulated NK cells (1 h); not in resting NK cells", "method": "FIGS. 2A-2I. IL-15-induced PDGFRβ expression is mediated by PI3K/AKT signaling. (A-B) Primary NK cells were treated with IL-15 (10 ng/ml) for the indicated times. mRNA levels of PDGFRB at different time points (A) (n=3) or at 1 h (B) (n=10) were examined by qPCR. (C-D) Primary NK cells were pretreated with actinomycin D (ActD, 5., g/ml) (C) or cycloheximide (CHX, 20 μg/ml) (D) for 1 h, washed twice with RPMI-1640, and then treated with IL-15 (10 ng/ml) for 24 h. DMSO was used as a control. Expression levels of PDGFRβ were examined by flow cytometry (n=5). Data shown are representative histograms and percentage of inhibition with the equation: % inhibition=[…]. (E) Primary NK cells were pretreated with wortmannin (1 μM), afuresertib (10 μM), TPCA-1 (1 μM), rapamycin (10 μM), torin1 (10 μM), decernotinib (10 μM), C118-9 (10 μM), STAT5-IN-1 (10 μM), AZD6244 (10 μM), or CI-1040 (10 μM) for 1 h, washed twice with RPMI 1640, and then treated with IL-15 (10 ng/ml) for 24 h. DMSO was used as control. Data shown are % of inhibition (n=5). The mean value of the inhibitory rate is shown. […] (G-I) Binding of p65 to the PDGFRB promoter in IL-15-treated NK cells (G) or resting NK cells (H) as determined by ChIP-qPCR or PCR (I) (n=3). […]\nPrimary NK cells were treated with IL-15 for 1 h. […] The enriched chromatin was analyzed by qPCR using the following primers: […]"}, "PDGF-D": {"system": "PDGF-D", "assay": "PDGF-D expression in NK cells (qPCR, flow cytometry, immunoblotting, ELISA)", "method": "FIGS. 5A-5J. IL-15 induces PDGF-D expression in an autocrine manner. (A) mRNA levels of PDGFA, PDGFB, PDGFC, and PDGF-D in T cells, B cells, and NK cells were analyzed using the BioGPS online tool. (B) mRNA levels of PDGFA, PDGFB, PDGFC, and PDGF-D in T cells, B cells, and NK cells were examined by qPCR (n=10). (C) Primary NK cells were treated with IL-15 (10 ng/ml) for the indicated times. mRNA levels of PDGF-D were examined by qPCR (n=3). (D-E) Representative dot plots and percentages of PDGF-D levels in NK cells after IL-15 (50 ng/ml) treatment for 24 h. Resting NK cells were used as control (n=5). […] (I-J) Binding of p65 to the PDGF-D promoter in IL-15 treated (I) or resting NK cells (J) as determined by ChIP-qPCR (n=3). Data represent three independent experiments. Data shown are means±SD. […]\nCells were stained with the indicated cell-surface markers and/or fixed/permeabilized using a Fixation/Permeabilization Kit (eBioscience). […] Data were analyzed using NovoExpress software (Agilent Technologies).\nRNA was isolated using an RNeasy Mini Kit (QIAGEN) and reversely transcribed to cDNA with a PrimeScript RT Reagent Kit with gDNA Eraser (Takara Bio) according to the manufacturer's protocol. mRNA expression levels were analyzed using SYBR Green qPCR Master Mix and a QuantStudio 12K Flex Real-Time PCR System (both from Thermo Fisher Scientific). […]"}, "BCL-2, BCL-XL, and MCL-1": {"system": "BCL-2, BCL-XL, and MCL-1", "assay": "Immunoblot of BCL-2, BCL-XL and MCL-1 in NK cells", "settings": "48 h"}}, "data": [{"substance": "IL-15: recombinant human IL-15 (200-15); recombinant murine IL-15 in the mouse NK cell test", "values": [{"measurement": "p65 associated with the PDGFRB promoter versus normal IgG control", "setting": "PDGFRB promoter", "result": "significantly higher levels"}, {"measurement": "mRNA levels of PDGF-D in NK cells", "setting": "PDGF-D; IL-15 10 ng/ml, qPCR", "result": "significantly increased"}, {"measurement": "protein levels of PDGF-D in NK cells", "setting": "PDGF-D; IL-15 50 ng/ml 24 h, flow cytometry, immunoblotting, ELISA", "result": "significantly increased"}]}, {"substance": "PDGF-D: recombinant human PDGF-DD (1159-SB-025), R&D Systems", "values": [{"measurement": "expression levels of BCL-2, BCL-XL, and MCL-1", "setting": "BCL-2, BCL-XL, and MCL-1; IL-15 10 ng/ml and PDGF-D 50 ng/ml", "result": "increased the expression levels"}, {"measurement": "receptor dependence of the BCL-2, BCL-XL, and MCL-1 increase", "setting": "BCL-2, BCL-XL, and MCL-1; with anti-NKp44 or anti-PDGFRβ", "result": "NKp44-independent but PDGFRβ-dependent"}]}]}
